Assay results from patent US9480671B2, “Reduction of risk of obesity” (Nestec S.A., priority 2009, dated 2016).

Assays:
[1] = Fatty acid composition in plasma phospholipids of guinea pig pups after suckling/weaning diet; assay type: in vivo; settings: compared to the control group, Table 2
Text: (§1) This example investigates the effect of feeding diets supplemented or not with ARA to newborn guinea pig pups on the development of total fat mass of the pups in the post-weaning period. The infant guinea pig is considered to be a good animal model to study the development fat mass in human infants: Indeed, like newborn human infants, guinea pig pups are born with an appreciable amount of body fat whilst newborn rat and mice pups are very lean. Newborn male guinea pigs were divided into two groups with 20 animals per group. Each group was fed a suckling/weaning diet in which 44% of the energy was supplied by fat for 21 days. The different diets were isocaloric and differed only in their ARA contents. The ARA diet contained 1.5% ARA based on total fatty acids and the control diet contained no ARA. The group receiving ARA diet is coded “ARA diet” or “+AA” in the below and in the figures. The group receiving no ARA is coded “control diet” or −AA″ in the below and in the figures. The levels of linoleic acid and α-linolenic acid were kept relatively constant between the diets such that the ratio of linoleic acid to α-linolenic acid was about 35. […] Body weight and fat mass were recorded at days 21, 51, 79, 107, 128 and 136 and plasma fatty acid composition, and plasma insulin concentrations were recorded at day 21 and day 136.

[2] = generally observed, estimated; cited from earlier work
clonal preadipocytes = settings: compared to PPAR agonists or saturated, mono-unsaturated and n-3 polyunsaturated fatty acids; cited from earlier work
[3] = Fatty acid composition in plasma triglycerides of guinea pig pups after suckling/weaning diet; assay type: in vivo; settings: compared to the control group, Table 3
Text: as §1

| SMILES | incorporation of ARA in plasma phospholipids [1] | maximum amount of ARA in the diet that does not induce adverse effects [2] | differentiation of clonal preadipocytes (clonal preadipocytes) | incorporation of ARA in plasma triglycerides [3] |
| --- | --- | --- | --- | --- |
| CCCCC/C=C\C/C=C\C/C=C\C/C=C\CCCC(=O)O [ARA, arachidonic acid (C20:4n-6)] | higher | about 100 mg ARA/kg/day | substantially promoted | higher |
| CCCCC[C@H](O)/C=C/[C@@H]1[C@H]2C/C(=C/CCCC(=O)O)C[C@H]2C[C@H]1O [carbacyclin, reference compound] | – | – | mimicked | – |
